Assay results as given in patent US20110178105A1, “CLINICAL BENEFITS OF EICOSAPENTAENOIC ACID IN HUMANS” (E.I. DU PONT DE NEMOURS AND COMPANY, priority 2010, published 2011).

Assay: Clinical study: adverse effects and safety testing
Assay type: in vivo, human
Experimental: The goal of this study was to test the safety and efficacy of an EPA-enriched oil (as described in Examples 1-3; E.I. duPont de Nemours & Co., Inc. Applied Biosciences, Wilmington, Del.), to corroborate the safety of a novel oil rich in EPA in humans prior to this product being placed on the market as a dietary supplement. This oil was tested at doses of 600 mg and 1800 mg of EPA/day as compared to olive oil placebo and a comparator omega-3 oil providing 600 mg of DHA/day over a 6 week period in a parallel arm design in approximately 120 healthy adults studied in both the fasting and post-prandial state. Safety was monitored by assessing for adverse reactions, measuring vital signs and a variety of laboratory tests including a complete metabolic profile, thyroid function tests, complete blood count, and prothrombin time.
Standard chemistry tests were carried at all visits (screening, enrollment, and final study visit after an overnight fast by Quest Laboratories, Cambridge, Mass.): blood urea nitrogen, creatinine, calculated glomerular filtration rate, sodium, potassium, chloride, carbon dioxide, calcium, total protein, albumin, globulin, total bilirubin, alkaline phosphatase, liver transaminases AST and ALT, and glucose. A complete blood count was also performed at all visits and included: hemoglobin, hematocrit, red blood cell count, platelet count, white blood cell count and a white blood cell count differential. Additional tests included: prothrombin time, and measurement of thyroid function including T3, T4 and T3 uptake. […]
At visit 2, subjects were again asked to fast for 12 hours, and information about subject characteristics including all vital signs, recent illness or hospitalization, medication and supplement use, and diet information was again obtained. […] Compliance and adverse events were assessed by telephone at weeks 1 and 3 by telephone and at week 6 by questionnaire and capsule count. […] Compliance was calculated as a percentage of consumed capsule count/expected capsule count based on the number of days the subject was in the study. […]

SMILES	fishy odor with belching occasionally experienced (share of subjects) (DHA 600 mg group) [%]	fishy odor with belching occasionally experienced (share of subjects) (EPA 600 mg group) [%]	fishy odor with belching occasionally experienced (share of subjects) (EPA 1800 mg group) [%]
CCC=CCC=CCC=CCC=CCC=CC/C=C\CCC(=O)O [DHA, cis-4,7, 10, 13, 16, 19-docosahexaenoic acid, reference compound]	39	–	–
CCC=CCC=CCC=CCC=CC/C=C\CCCC(=O)O [EPA, cis-5,8, 11, 14, 17-eicosapentaenoic acid]	–	15	28
